Here are results for 24 compounds from patent publication EP3383875B1, “3-PYRIMIDINYL PYRROLO [2,3-B] PYRIDINE AS ANTICANCER AGENTS AND THE PROCESS FOR THE PREPARATION THEREOF” (Council Of Scientific & Industrial Research, priority 2015, dated 2017).

Read-outs that look alike come from different tables or passages of the source. Where only a bound is given, the exact number is not on record here.

Test [1] addresses CDK-2/cyclin A (Homo sapiens, UniProt P24941). The test is described as follows: CDK inhibition assay, CDK-2/cyclin A against Histone HI, 33P-ATP. The class given is biochemical. The following applies: at 500 nM. The protocol:
Compounds were evaluated for their ability to inhibit CDK2 and CDK9 as given below.
CDK-2/cyclin A (5-20 mU diluted in 50 mM Hepes pH 7.5, 1 mM DTT, 0.02% Brij35, 100 mM NaCl) was assayed against Histone HI in a final volume of 25.5 µl containing 50 mM Hepes pH7.5, 1 mM DTT, 0.02% Brij35, 100 mM NaCl, Histone HI (1 mg/ml), 10 mM magnesium acetate and 0.02 mM [33P-g-ATP](500-1000 cpm/pmole) and incubated for 30 min at room temperature. Assays were stopped by addition of 5 µl of 0.5 M (3%) orthophosphoric acid and then harvested onto P81 Unifilter plates with a wash buffer of 50 mM orthophosphoric acid.

The target in test [2] is CDK-9/Cyclin T1 (Homo sapiens, UniProt P50750). The experiment in a line: CDK inhibition assay, CDK-9/Cyclin T1 against substrate peptide, 33P-ATP. The following applies: at 500 nM. The class given is biochemical. The protocol:
(50-1000 cpm/pmole) and incubated for 30 min at room temperature. Assays were stopped by addition of 5 µl of 0.5 M (3%) orthophosphoric acid and then harvested onto P81 Unifilter plates with a wash buffer of 50 mM orthophosphoric acid.

The mark [3] stands for this setting: Table-6, read-out: In vitro CDK2 % of inhibition.
[4] abbreviates: Table-6, read-out: In vitro CDK9 % of inhibition.
The mark [5] stands for this setting: read-out: inhibition against CDK2.
Where [6] appears, read: read-out: inhibition against CDK9.

CDK-9/Cyclin T1, sequence (P50750 whole entry): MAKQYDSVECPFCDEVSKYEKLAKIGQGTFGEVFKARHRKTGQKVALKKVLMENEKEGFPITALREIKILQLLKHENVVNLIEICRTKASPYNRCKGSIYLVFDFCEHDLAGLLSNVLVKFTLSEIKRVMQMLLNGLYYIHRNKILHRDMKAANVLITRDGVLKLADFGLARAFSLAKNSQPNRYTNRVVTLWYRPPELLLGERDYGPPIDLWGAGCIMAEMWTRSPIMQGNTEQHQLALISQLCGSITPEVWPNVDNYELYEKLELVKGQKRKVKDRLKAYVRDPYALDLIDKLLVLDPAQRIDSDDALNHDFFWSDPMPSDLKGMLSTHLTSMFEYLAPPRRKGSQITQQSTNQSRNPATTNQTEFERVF
CDK-9/Cyclin T1, sequence (O60563 whole entry partner): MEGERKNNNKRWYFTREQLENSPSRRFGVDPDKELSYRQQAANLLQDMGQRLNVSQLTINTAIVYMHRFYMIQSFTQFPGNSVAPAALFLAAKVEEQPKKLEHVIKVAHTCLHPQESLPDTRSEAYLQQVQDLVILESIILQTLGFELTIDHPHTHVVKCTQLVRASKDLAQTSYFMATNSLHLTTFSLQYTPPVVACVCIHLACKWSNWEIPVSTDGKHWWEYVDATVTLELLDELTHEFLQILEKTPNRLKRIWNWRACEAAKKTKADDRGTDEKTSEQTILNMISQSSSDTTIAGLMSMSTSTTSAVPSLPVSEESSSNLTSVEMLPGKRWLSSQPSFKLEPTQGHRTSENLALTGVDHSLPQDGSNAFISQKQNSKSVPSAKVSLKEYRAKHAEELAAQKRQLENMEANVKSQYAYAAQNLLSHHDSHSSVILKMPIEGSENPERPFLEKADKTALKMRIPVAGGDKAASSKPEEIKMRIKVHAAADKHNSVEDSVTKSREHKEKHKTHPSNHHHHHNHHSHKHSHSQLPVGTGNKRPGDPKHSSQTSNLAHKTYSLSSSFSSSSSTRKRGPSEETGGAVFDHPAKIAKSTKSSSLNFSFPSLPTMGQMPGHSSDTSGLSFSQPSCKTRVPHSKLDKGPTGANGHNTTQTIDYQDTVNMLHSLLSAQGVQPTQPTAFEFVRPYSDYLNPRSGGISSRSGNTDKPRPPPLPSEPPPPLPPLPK

For `FC(F)(F)c1ccc(-c2cnc3[nH]cc(-c4ccnc(NC5CC5)n4)c3c2)cc1` [1A1, N-cyclopropyl-4-(5-(4-(trifluoromethyl)phenyl)-1H-pyrrolo[2,3-b]pyridin-3-yl)pyrimidin-2-amine], the inhibition at 0.5 µM in test [1] (setting [3]) and in test [2] (setting [4]) was less than 50% each time.

As to `FC(F)(F)Oc1ccc(-c2cnc3[nH]cc(-c4ccnc(NC5CC5)n4)c3c2)cc1` [1A3, N-cyclopropyl-4-(5-(4-(trifluoromethoxy)phenyl)-1H-pyrrolo[2,3-b]pyridin-3-yl)pyrimidin-2-amine], the inhibition at 0.5 µM in test [1] (setting [3]), in test [1] (setting [5]), in test [2] (setting [4]) and in test [2] (setting [6]) was more than 70% throughout.

For `FC(F)(F)c1cccc(-c2cnc3[nH]cc(-c4ccnc(NC5CC5)n4)c3c2)c1` [1A4, N-cyclopropyl-4-(5-(3-(trifluoromethyl)phenyl)-1H-pyrrolo[2,3-b]pyridin-3-yl)pyrimidin-2-amine], the inhibition at 0.5 µM in test [1] (setting [3]), in test [1] (setting [5]), in test [2] (setting [4]) and in test [2] (setting [6]) was more than 70% throughout.

As for `Cc1ccc(-c2cnc3[nH]cc(-c4ccnc(NC5CC5)n4)c3c2)cc1` [1A6, N-cyclopropyl-4-(5-(p-tolyl)-1H-pyrrolo[2,3-b]pyridin-3-yl)pyrimidin-2-amine], the inhibition at 0.5 µM in test [1] (setting [3]), in test [1] (setting [5]), in test [2] (setting [4]) and in test [2] (setting [6]) was more than 70% throughout.

For `Cc1cccc(-c2cnc3[nH]cc(-c4ccnc(NC5CC5)n4)c3c2)c1` [1A7, N-cyclopropyl-4-(5-(m-tolyl)-1H-pyrrolo[2,3-b]pyridin-3-yl)pyrimidin-2-amine], the inhibition at 0.5 µM in test [1] (setting [3]), in test [1] (setting [5]), in test [2] (setting [4]) and in test [2] (setting [6]) was more than 70% each time.

As for `CSc1ccc(-c2cnc3[nH]cc(-c4ccnc(NC5CC5)n4)c3c2)cc1` [1A8, N-cyclopropyl-4-(5-(4-(methylthio)phenyl)-1H-pyrrolo[2,3-b]pyridin-3-yl)pyrimidin-2-amine], the inhibition at 0.5 µM in test [1] (setting [3]), in test [1] (setting [5]), in test [2] (setting [4]) and in test [2] (setting [6]) was more than 70% in each case.

Turning to `CSc1ccccc1-c1cnc2[nH]cc(-c3ccnc(NC4CC4)n3)c2c1` [1A9, N-cyclopropyl-4-(5-(2-(methylthio)phenyl)-1H-pyrrolo[2,3-b]pyridin-3-yl)pyrimidin-2-amine], the inhibition at 0.5 µM in test [1] (setting [3]), in test [1] (setting [5]), in test [2] (setting [4]) and in test [2] (setting [6]) was more than 70% throughout.

Consider `CCc1ccccc1-c1cnc2[nH]cc(-c3ccnc(NC4CC4)n3)c2c1` [1A10, N-cyclopropyl-4-(5-(2-ethylphenyl)-1H-pyrrolo[2,3-b]pyridin-3-yl)pyrimidin-2-amine], for which the inhibition at 0.5 µM in test [1] (setting [3]), in test [1] (setting [5]), in test [2] (setting [4]) and in test [2] (setting [6]) was more than 70% throughout.

Consider `O=Cc1ccc(-c2cnc3[nH]cc(-c4ccnc(NC5CC5)n4)c3c2)cc1` [1A13, 4-(3-(2-(cyclopropylamino)pyrimidin-4-yl)-1H-pyrrolo[2,3-b]pyridin-5-yl)benzaldehyde], for which the inhibition at 0.5 µM in test [1] (setting [3]), in test [1] (setting [5]), in test [2] (setting [4]) and in test [2] (setting [6]) was more than 70% each time.

Consider `COc1ccc2[nH]c(-c3cnc4[nH]cc(-c5ccnc(NC6CC6)n5)c4c3)cc2c1` [1A17, N-cyclopropyl-4-(5-(5-methoxy-1H-indol-2-yl)-1H-pyrrolo[2,3-b]pyridin-3-yl)pyrimidin-2-amine], for which the inhibition at 0.5 µM in test [1] (setting [3]), in test [1] (setting [5]), in test [2] (setting [4]) and in test [2] (setting [6]) was more than 50% each time.

`c1ccc2sc(-c3cnc4[nH]cc(-c5ccnc(NC6CC6)n5)c4c3)cc2c1` [1A18, 4-(5-(benzo[b]thiophen-2-yl)-1H-pyrrolo[2,3-b]pyridin-3-yl)-N-cyclopropylpyrimidin-2-amine]: the inhibition at 0.5 µM in test [1] (setting [3]), in test [1] (setting [5]), in test [2] (setting [4]) and in test [2] (setting [6]) was more than 70% throughout.

As for `c1ccc2[nH]c(-c3cnc4[nH]cc(-c5ccnc(NC6CC6)n5)c4c3)cc2c1` [1A19, 4-(5-(1H-indol-2-yl)-1H-pyrrolo[2,3-b]pyridin-3-yl)-N-cyclopropylpyrimidin-2-amine], the inhibition at 0.5 µM in test [1] (setting [3]), in test [1] (setting [5]), in test [2] (setting [4]) and in test [2] (setting [6]) was more than 70% throughout.

As to `c1ccc2c(-c3cnc4[nH]cc(-c5ccnc(NC6CC6)n5)c4c3)nccc2c1` [1A20, N-cyclopropyl-4-(5-(isoquinolin-1-yl)-1H-pyrrolo[2,3-b]pyridin-3-yl)pyrimidin-2-amine], the inhibition – broadly, the share of the control response that was lost under treatment – at 0.5 µM was more than 50% in test [1] (setting [3]), more than 50% in test [1] (setting [5]), less than 50% in test [2] (setting [4]) and more than 50% in test [2] (setting [6]).

In the case of `FC(F)(F)c1ccc(-c2cnc3[nH]cc(-c4ccnc(NC5CCCC5)n4)c3c2)cc1` [1A21, N-cyclopentyl-4-(5-(4-(trifluoromethyl)phenyl)-1H-pyrrolo[2,3-b]pyridin-3-yl)pyrimidin-2-amine], the inhibition at 0.5 µM in test [1] (setting [3]) and in test [2] (setting [4]) was less than 50% in each case.

In the case of `FC(F)(F)c1cccc(-c2cnc3[nH]cc(-c4ccnc(NC5CCCC5)n4)c3c2)c1` [1A24, N-cyclopentyl-4-(5-(3-(trifluoromethyl)phenyl)-1H-pyrrolo[2,3-b]pyridin-3-yl)pyrimidin-2-amine], the inhibition at 0.5 µM in test [1] (setting [3]), in test [1] (setting [5]), in test [2] (setting [4]) and in test [2] (setting [6]) was more than 50% each time.

In the case of `Fc1cccc(-c2cnc3[nH]cc(-c4ccnc(NC5CCCC5)n4)c3c2)c1` [1A25, N-cyclopentyl-4-(5-(3-fluorophenyl)-1H-pyrrolo[2,3-b]pyridin-3-yl)pyrimidin-2-amine], the inhibition at 0.5 µM in test [1] (setting [3]) and in test [2] (setting [4]) was more than 70% throughout.

Regarding `Cc1ccc(-c2cnc3[nH]cc(-c4ccnc(NC5CCCC5)n4)c3c2)cc1` [1A26, N-cyclopentyl-4-(5-(p-tolyl)-1H-pyrrolo[2,3-b]pyridin-3-yl)pyrimidin-2-amine], the inhibition at 0.5 µM in test [1] (setting [3]), in test [1] (setting [5]), in test [2] (setting [4]) and in test [2] (setting [6]) was more than 50% each time.

For the compound `Cc1cccc(-c2cnc3[nH]cc(-c4ccnc(NC5CCCC5)n4)c3c2)c1` [1A27, N-cyclopentyl-4-(5-(m-tolyl)-1H-pyrrolo[2,3-b]pyridin-3-yl)pyrimidin-2-amine], the inhibition at 0.5 µM in test [1] (setting [3]), in test [1] (setting [5]), in test [2] (setting [4]) and in test [2] (setting [6]) was more than 50% in each case.

As to `CSc1ccc(-c2cnc3[nH]cc(-c4ccnc(NC5CCCC5)n4)c3c2)cc1` [1A28, N-cyclopentyl-4-(5-(4-(methylthio)phenyl)-1H-pyrrolo[2,3-b]pyridin-3-yl)pyrimidin-2-amine], the inhibition at 0.5 µM in test [1] (setting [3]), in test [1] (setting [5]), in test [2] (setting [4]) and in test [2] (setting [6]) was more than 50% each time.

For `CSc1ccccc1-c1cnc2[nH]cc(-c3ccnc(NC4CCCC4)n3)c2c1` [1A29, N-cyclopentyl-4-(5-(2-(methylthio)phenyl)-1H-pyrrolo[2,3-b]pyridin-3-yl)pyrimidin-2-amine], the inhibition at 0.5 µM in test [1] (setting [3]), in test [1] (setting [5]), in test [2] (setting [4]) and in test [2] (setting [6]) was more than 70% in each case.

For `CCc1ccccc1-c1cnc2[nH]cc(-c3ccnc(NC4CCCC4)n3)c2c1` [1A30, N-cyclopentyl-4-(5-(2-ethylphenyl)-1H-pyrrolo[2,3-b]pyridin-3-yl)pyrimidin-2-amine], the inhibition at 0.5 µM in test [1] (setting [3]), in test [1] (setting [5]), in test [2] (setting [4]) and in test [2] (setting [6]) was more than 50% in each case.

Turning to `Clc1ccc(-c2cnc3[nH]cc(-c4ccnc(NC5CCCC5)n4)c3c2)cc1` [1A32, 4-(5-(4-chlorophenyl)-1H-pyrrolo [2,3-b]pyridin-3-yl)-N-cyclopentylpyrimidin-2-amine], the inhibition at 0.5 µM in test [1] (setting [3]), in test [1] (setting [5]), in test [2] (setting [4]) and in test [2] (setting [6]) was more than 50% each time.

With `O=Cc1ccc(-c2cnc3[nH]cc(-c4ccnc(NC5CCCC5)n4)c3c2)cc1` [1A33, 4-(3-(2-(cyclopentylamino)pyrimidin-4-yl)-1H-pyrrolo[2,3-b]pyridin-5-yl)benzaldehyde], the inhibition at 0.5 µM in test [1] (setting [3]) was more than 70%; in test [2] (setting [4]) it was more than 50%.

As to `c1ccc2c(-c3cnc4[nH]cc(-c5ccnc(NC6CCCC6)n5)c4c3)cccc2c1` [1A34, N-cyclopentyl-4-(5-(naphthalen-1-yl)-1H-pyrrolo[2,3-b]pyridin-3-yl)pyrimidin-2-amine], the inhibition at 0.5 µM in test [1] (setting [3]) and in test [2] (setting [4]) was more than 50% throughout.
